{"source": "patent US7781594B2", "about": "“5-(4-methanesulfonyl-phenyl)-thiazole derivatives for the treatment of acute and chronic inflammatory diseases” (Faes Farma, S.A., priority 2008, dated 2010)", "key": {"[1]": {"tested_on": "PBMC from healthy volunteers", "test": "Proliferative response of PBMC, 3H-thymidine incorporation", "format": "cell-based, human", "details": "absence or presence of PHA, PHA plus IL-2, or anti-CD3 + anti-CD28, 4 days, FIGS. 11a and 11b", "method": "Faced against a mitogen stimulation, lymphocytes suffer a blastogenesis and cellular differentiation process. The method used to quantify the cellular proliferation was the assay of the incorporation of ^3[H]-Thymidine to the DNA de novo synthesized, and the emission of betha-radiation from the cellular cultures dried extracts (to which the tritiated base was added) was detected before its ending and harvesting. In the different experiments performed to study the proliferation, the purified cellular preparations were incubated in 96 microwells plain bottom plates at concentrations of 5×10^4 cells/well (200 μl final volume), in the presence of different concentrations of various mitogens with triplicate repetitions and along 4 days of culture.\nThe response to a specific stimuli depended on the density and cell type studied, as well as of the culture time and of the mitogenic agent concentration. […]\nPBMC was cultured during 4 days (50,000 cells per well) at 37° C. and 5% CO2 atmosphere (Cell incubator HERA Cell 150, Thermoscientific, Thermoelectron, 63505 Lagenselbold, GE) in complete culture medium. […] The DNA-incorporated radioactive was quantified by using a betha particles counter Wallac Oy."}, "IL-10": {"tested_on": "IL-10", "test": "IL-10 production by PBMC from patients with rheumatoid arthritis, CBA", "format": "cell-based, human", "method": "CBA protocol was followed according to the manufacturer's instructions. The election of microparticles was performed following the summary of FIG. 1.\nThe acquisition on samples was performed with the BD FACS Array Bioanalyser System (FACSArray, Becton Dickinson, San José, Calif., USA) and the analysis of the results was completed with the software FCAP Array (Becton Dickinson) in a PC computer.\nBriefly, the experimental protocol consisted of a plate pre-washing out with Wash Buffer. After decantation, the mixture of capture microparticles was re-suspended in the vortex. Standards and samples were added in the adequate dilution. After permanent stirring incubation during 1 h, the PE detection reagent was added and incubated again during 2 h at room temperature. After a washing-out, the acquisition was performed in the flow cytometer.\nOn the other hand, PBMC (5×10^4 cells per well) from 8 patients with rheumatoid arthritis were cultured in duplicate in 200 μl of complete medium supplemented with the highest solvent concentration (10^−6 M), and 10^−6 M, 10^−7 M and 10^−8 M of compound 12 in the presence and absence of either LPS (10 μg/ml) or anti-CD3 (12.5 ng/ml), +anti-CD28 (⅓×10^5), during 24 hours. […]"}}, "data": [{"smiles": "Cc1nc(OC2CCCC2)c(-c2ccc(S(C)(=O)=O)cc2)s1", "note": "[Compound 12, 4-cyclopentyloxy-5-(4-methylsulfonyl-phenyl)-2-methyl-thiazole]", "values": [{"measurement": "Effect on the proliferative response of PBMC", "setting": "[1]", "value": "did not significantly modify"}, {"measurement": "Effect on IL-10 production by PBMC, spontaneous or anti-CD3 and anti-CD28 stimulated", "setting": "IL-10", "value": "no significant effects"}, {"measurement": "Effect on IL-10 production after stimulation with LPS", "setting": "IL-10; 10^−8, p<0.05, FIG. 10", "value": "significantly inhibited"}]}]}
